Source: patent US20240279233A1, “MACROCYCLIC TAK1 INHIBITORS” (Aqilion AB, priority 2021, published 2024)
Read-outs that look alike come from different tables or passages of the source.

Biological target: human recombinant TAK1-TAB1 Kinase (TAK1 (1-303) and TAB1 (437-end)) (Homo sapiens (Human), UniProt O43318)
Test: TAK1 biochemical ADP-Glo kinase assay
Conditions: MBP substrate
Protocol: The usefulness of the example compounds of the invention as TAK1 inhibitors was evaluated in a biochemical ADP-Glo kinase assay. Assay kits from Promega Corporation V4089 were used according to manufacturer's instructions and adapted as outlined here. ADP-Glo Kinase Assay kit contains ADP-Glo Reagent, Kinase Detection Reagent, kinase detection buffer, ATP, and ADP. The Kinase Enzyme Systems include human recombinant TAK1-TAB1 Kinase (TAK1 (1-303) and TAB1 (437-end)), Native Swine Myelin Basic Protein (MBP) substrate, 5×kinase reaction buffer, and DTT.
Test compounds were prepared in 1:5 serial dilutions at 8 concentrations in DMSO from 10 mM stock solutions. An additional 20-fold dilution in 1× kinase reaction buffer (see below) was performed, yielding a final dilution series in kinase buffer with 5% DMSO (final concentration in assay from 20 μM to 0.26 nM, 1% DMSO). As controls, Takinib was prepared as positive control (3 μM final in assay), and DMSO without inhibitor served as negative control, at a final assay concentration of DMSO of 1%.
One μl of compound solution in 5% DMSO was added to each well in a 384 well microtiter plate (OptiPlate #6007290). Two μl TAK1-TAB1 (7.5 ng/μl) in lxkinase reaction buffer ([…] Tris base pH 7.5, 20 mM MgCl2, 50 μM DTT, 0.1 mg/ml BSA) was added and pre-incubated 10 min before adding 2 μl of a mixture of MBP substrate and ATP (0.25 μg/μL MBP/25 μM ATP or 0.25 μg/μL MBP/2.5 mM ATP) in 1× kinase reaction buffer (as above). The plate was subsequently incubated at room temperature for 1 hour. Then 5 μl ADP-Glo™ reagent from ADP-Glo™ kit (as above) was added and incubated for 40 min to stop the reaction and consume remaining ATP. Ten μl kinase detection substrate (dissolved in kinase detection buffer, both from ADP-Glo™ kit as above) was then added to convert ADP to ATP and detect ATP with luciferase/luciferin. The plate was incubated for 30 minutes at room temperature in dark before reading luminescence on an Envision (PerkinElmer) reader.
IC50 values of compounds of the invention were determined by the non-linear regression analysis of dose response curves.

[1] = 10 μM ATP, read-out: TAK1 Mean IC50 (nM) @ 10 μM ATP
[2] = 1 mM ATP, read-out: TAK1 Mean IC50 (nM) @ 1 mM ATP

Chain of human recombinant TAK1-TAB1 Kinase (TAK1 (1-303) and TAB1 (437-end)) (O43318 other isoform, or with tags, fused parts or gaps): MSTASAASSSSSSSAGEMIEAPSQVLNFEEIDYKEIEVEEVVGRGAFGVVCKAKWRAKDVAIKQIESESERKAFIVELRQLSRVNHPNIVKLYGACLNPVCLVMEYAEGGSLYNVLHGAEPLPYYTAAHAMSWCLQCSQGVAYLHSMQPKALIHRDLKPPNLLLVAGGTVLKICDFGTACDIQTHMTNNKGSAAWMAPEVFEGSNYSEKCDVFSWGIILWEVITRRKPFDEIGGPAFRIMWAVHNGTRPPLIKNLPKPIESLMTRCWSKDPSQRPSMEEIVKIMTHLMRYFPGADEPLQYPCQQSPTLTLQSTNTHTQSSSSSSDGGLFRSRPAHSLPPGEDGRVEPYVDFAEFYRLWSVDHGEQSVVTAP

Question: For `CC1CCCCNC(=O)c2cccc(c2)C(=O)/N=C2\Nc3cccc(C(=O)N4CC5(COC5)C4)c3N21` (stereo not shown) [Example 42, (E)-11-methyl-1^7-(2-oxa-6-azaspiro[3.3]heptane-6-carbonyl)-1^2,1^3-dihydro-1^1H-2,6-diaza-1(2,1)-benzo[d]imidazola-4(1,3)-benzenacycloundecaphane-3,5-dione], which IC50 [1] is on record?
Answer: 7 nM

Question: With `CC1CCCCNC(=O)c2nc(cs2)C(=O)/N=C2\Nc3cccc(C(=O)N(C)C)c3N21` (single isomer, unassigned) [Example 109, (1^2Z,4^2E)-N,N,5-trimethyl-2,11-dioxo-4^2,4^3-dihydro-4^1H-3,10-diaza-1(4,2)-thiazola-4(2,1)-benzo[d]imidazolacycloundecaphane-4^7-carboxamide] as the compound, how does the IC50 [2] read?
Answer: 114 nM

Question: Which IC50 [1] does the source give for `CC1CCCCNC(=O)c2cccc(c2)C(=O)/N=C2\Nc3cccc(C(=O)N(C)CC(F)F)c3N21` (single isomer, unassigned) [Example 73, (E)-N-(2,2-difluoroethyl)-N,11-dimethyl-3,5-dioxo-1^2,1^3-dihydro-1^1H-2,6-diaza-1(2,1)-benzo[d]imidazola-4(1,3)-benzenacycloundecaphane-1^7-carboxamide] here?
Answer: 5 nM

Question: How did the IC50 [1] turn out when `CC1CCCCNC(=O)c2cccc(c2)C(=O)/N=C2\Nc3cccc(C(=O)N4CC[C@@H](F)C4)c3N21` (single isomer, unassigned) [Example 93] was run?
Answer: 6 nM

Question: For `C[C@H]1CCCCNC(=O)c2cccc(c2)C(=O)/N=C2\Nc3cccc(C(=O)N4CC(OC5CC5)C4)c3N21` [Example 107, (S,E)-1^7-(3-cyclopropoxyazetidine-1-carbonyl)-11-methyl-1^2,1^3-dihydro-1^1H-2,6-diaza-1(2,1)-benzo[d]imidazola-4(1,3)-benzenacycloundecaphane-3,5-dione], which IC50 [2] is on record?
Answer: 4 nM

Question: Which IC50 [1] does the source give for `C[C@H]1CCCCNC(=O)c2cccc(c2)C(=O)/N=C2\Nc3cncc(C(=O)N(C)C)c3N21` [Example 145, (S,E)-N,N,11-trimethyl-3,5-dioxo-1^2,1^3-dihydro-1^1H-2,6-diaza-1(2,1)-imidazo[4,5-c]pyridina-4(1,3)-benzenacycloundecaphane-1^7-carboxamide] here?
Answer: 10 nM

Question: `CN1CCN(Cc2ccc3c(c2)N/C2=N\C(=O)c4cc(ccc4F)C(=O)NCCCCCN23)CC1` [Example 105, (E)-4^6-fluoro-1^5-((4-methylpiperazin-1-yl)methyl)-1^2,1^3-dihydro-1^1H-2,6-diaza-1(2,1)-benzo[d]imidazola-4(1,3)-benzenacycloundecaphane-3,5-dione] was tested. Which IC50 [1] did it give?
Answer: 6 nM

Question: Which results are given for `C[C@H]1CCCCNC(=O)c2cccc(c2)C(=O)/N=C2\Nc3ccnc(N4CCN(C)C4=O)c3N21` [Example 130, (S,E)-11-methyl-1^4-(3-methyl-2-oxoimidazolidin-1-yl)-1^2,1^3-dihydro-1^1H-2,6-diaza-1(2,3)-imidazo[4,5-c]pyridina-4(1,3)-benzenacycloundecaphane-3,5-dione]?
Answer: IC50 [1]: 7 nM; IC50 [2]: 27 nM

Question: `Cc1nnc(-c2cccc3c2N2/C(=N/C(=O)c4cccc(c4)C(=O)NCCCCC2C)N3)o1` (single isomer, unassigned) [Example 133, (E)-11-methyl-1^7-(5-methyl-1,3,4-oxadiazol-2-yl)-1^2,1^3-dihydro-1^1H-2,6-diaza-1(2,1)-benzo[d]imidazola-4(1,3)-benzenacycloundecaphane-3,5-dione] was tested. Which IC50 [1] did it give?
Answer: 10 nM

Question: What about the IC50 [2] of the same compound?
Answer: 12 nM

Question: How did the IC50 [1] turn out when `Cc1nnc(-c2cccc3c2N2/C(=N/C(=O)c4cccc(c4)C(=O)NCCCCC2C)N3)o1` (single isomer, unassigned) [Example 132, (E)-11-methyl-1^7-(5-methyl-1,3,4-oxadiazol-2-yl)-1^2,1^3-dihydro-1^1H-2,6-diaza-1(2,1)-benzo[d]imidazola-4(1,3)-benzenacycloundecaphane-3,5-dione] was run?
Answer: 10 nM

Question: And the IC50 [2]?
Answer: 10 nM

Question: For `CC1CCCCNC(=O)c2cccc(c2)C(=O)/N=C2\Nc3cccc(C(=O)N4CC[C@@H](F)C4)c3N21` (single isomer, unassigned) [Example 92], which IC50 [1] is on record?
Answer: 6 nM

Question: `CC1CCCCNC(=O)c2cccc(c2)C(=O)/N=C2\Nc3cccc(C(=O)N4CCC(F)(F)C4)c3N21` (stereo not shown) [Example 37, (E)-1^7-(3,3-difluoropyrrolidine-1-carbonyl)-11-methyl-1^2,1^3-dihydro-1^1H-2,6-diaza-1(2,1)-benzo[d]imidazola-4(1,3)-benzenacycloundecaphane-3,5-dione] was tested. Which IC50 [1] did it give?
Answer: 5 nM

Question: With `CC1CCCNC(=O)c2cccc(c2)C(=O)Nc2nc3cccc(C(=O)N(C)C)c3n2C1` (stereo not shown) [Example 51, (E)-N,N,10-trimethyl-3,5-dioxo-1^2,1^3-dihydro-1^1H-2,6-diaza-1(2,1)-benzo[d]imidazola-4(1,3)-benzenacycloundecaphane-1^7-carboxamide] as the compound, how does the IC50 [1] read?
Answer: 136 nM

Question: What does the source list for `CC1CCCCNC(=O)c2cccc(c2)C(=O)Nc2nc3cccc(-c4nccn4C(F)F)c3n21` (single isomer, unassigned) [Example 91, (E)-1^7-(1-(difluoromethyl)-1H-imidazol-2-yl)-11-methyl-1^2,1^3-dihydro-1^1H-2,6-diaza-1(2,1)-benzo[d]imidazola-4(1,3)-benzenacycloundecaphane-3,5-dione]?
Answer: IC50 [1]: 5 nM; IC50 [2]: 19 nM

Question: `CC1CCCCNC(=O)c2cccc(c2)C(=O)Nc2nc3cccc(-c4ccc[nH]c4=O)c3n21` (single isomer, unassigned) [Example 36, (E)-11-methyl-1^7-(2-oxo-1,2-dihydropyridin-3-yl)-1^2,1^3-dihydro-1^1H-2,6-diaza-1(2,1)-benzo[d]imidazola-4(1,3)-benzenacycloundecaphane-3,5-dione] was tested. Which IC50 [1] did it give?
Answer: 6 nM

Question: With `CN1CCN(Cc2ccc3c(c2)N/C2=N\C(=O)c4csc(c4)C(=O)NCCCCCN23)CC1` [Example 104, (1^2E,4^2Z)-1^5-((4-methylpiperazin-1-yl)methyl)-1^2,1^3-dihydro-1^1H-2,6-diaza-1(2,1)-benzo[d]imidazola-4(4,2)-thiophenacycloundecaphane-3,5-dione] as the compound, how does the IC50 [1] read?
Answer: 4 nM

Question: Which IC50 [1] does the source give for `COC1CN(C(=O)c2cccc3c2N2/C(=N/C(=O)c4cccc(c4)C(=O)NCCCCC2C)N3)C1` (single isomer, unassigned) [Example 82, (E)-1^7-(3-methoxyazetidine-1-carbonyl)-11-methyl-1^2,1^3-dihydro-1^1H-2,6-diaza-1(2,1)-benzo[d]imidazola-4(1,3)-benzenacycloundecaphane-3,5-dione] here?
Answer: 7 nM

Question: For `CC1CCCCNC(=O)c2cccc(c2)C(=O)/N=C2\Nc3cccc(C(=O)N(C)CC(F)F)c3N21` (single isomer, unassigned) [Example 72, (E)-N-(2,2-difluoroethyl)-N,11-dimethyl-3,5-dioxo-1^2,1^3-dihydro-1^1H-2,6-diaza-1(2,1)-benzo[d]imidazola-4(1,3)-benzenacycloundecaphane-1^7-carboxamide], which IC50 [1] is on record?
Answer: 7 nM

Question: With `CN1CCN(Cc2ccc3c(c2)N/C2=N\C(=O)c4ccc(F)c(c4)C(=O)NCCCCCN23)CC1` [Example 103, (E)-4^4-fluoro-1^5-((4-methylpiperazin-1-yl)methyl)-1^2,1^3-dihydro-1^1H-2,6-diaza-1(2,1)-benzo[d]imidazola-4(1,3)-benzenacycloundecaphane-3,5-dione] as the compound, how does the IC50 [1] read?
Answer: 3 nM

Question: `CC1CCCCNC(=O)c2cccc(c2)C(=O)Nc2nc3cccc(C(=O)N(C)C)c3n21` (single isomer, unassigned) [Example 31, (E)-N,N,11-trimethyl-3,5-dioxo-1^2,1^3-dihydro-1^1H-2,6-diaza-1(2,1)-benzo[d]imidazola-4(1,3)-benzenacycloundecaphane-1^7-carboxamide] was tested. Which IC50 [1] did it give?
Answer: 3 nM

Question: And the IC50 [2]?
Answer: 14 nM

Question: How did the IC50 [2] turn out when `CC1CCCCNC(=O)c2cccc(c2)C(=O)/N=C2\Nc3cccc(N4CCN(C5CC5)C4=O)c3N21` (single isomer, unassigned) [Example 141, (E)-1^7-(3-cyclopropyl-2-oxoimidazolidin-1-yl)-11-methyl-1^2,1^3-dihydro-1H-2,6-diaza-1(2,1)-benzo[d]imidazola-4(1,3)-benzenacycloundecaphane-3,5-dione] was run?
Answer: 15 nM

Question: What does the source list for `Cc1nnc(-c2cccc3c2N2/C(=N/C(=O)c4cccc(c4)C(=O)NCCCC[C@@H]2C)N3)n1C` [Example 96, (S,E)-1^7-(4,5-dimethyl-4H-1,2,4-triazol-3-yl)-11-methyl-1^2,1^3-dihydro-1^1H-2,6-diaza-1(2,1)-benzo[d]imidazola-4(1,3)-benzenacycloundecaphane-3,5-dione]?
Answer: IC50 [1]: 11 nM; IC50 [2]: 7 nM
